Assay results from patent US20080119462A1, “METHOD FOR TREATING VASCULAR HYPERPERMEABLE DISEASE” (Sucampo AG, priority 2003, published 2008).
pIC50: −log10 of the molar value.

How the values were obtained:
Cloned human DAO = target: T1, Cloned human DAO (Homo sapiens, UniProt P19801); assay: Diamine oxidase (DAO, histaminase) activity assay with 14C-putrescine; type: biochemical
T1 construct: made in house
T1 sequence (P19801 20-751): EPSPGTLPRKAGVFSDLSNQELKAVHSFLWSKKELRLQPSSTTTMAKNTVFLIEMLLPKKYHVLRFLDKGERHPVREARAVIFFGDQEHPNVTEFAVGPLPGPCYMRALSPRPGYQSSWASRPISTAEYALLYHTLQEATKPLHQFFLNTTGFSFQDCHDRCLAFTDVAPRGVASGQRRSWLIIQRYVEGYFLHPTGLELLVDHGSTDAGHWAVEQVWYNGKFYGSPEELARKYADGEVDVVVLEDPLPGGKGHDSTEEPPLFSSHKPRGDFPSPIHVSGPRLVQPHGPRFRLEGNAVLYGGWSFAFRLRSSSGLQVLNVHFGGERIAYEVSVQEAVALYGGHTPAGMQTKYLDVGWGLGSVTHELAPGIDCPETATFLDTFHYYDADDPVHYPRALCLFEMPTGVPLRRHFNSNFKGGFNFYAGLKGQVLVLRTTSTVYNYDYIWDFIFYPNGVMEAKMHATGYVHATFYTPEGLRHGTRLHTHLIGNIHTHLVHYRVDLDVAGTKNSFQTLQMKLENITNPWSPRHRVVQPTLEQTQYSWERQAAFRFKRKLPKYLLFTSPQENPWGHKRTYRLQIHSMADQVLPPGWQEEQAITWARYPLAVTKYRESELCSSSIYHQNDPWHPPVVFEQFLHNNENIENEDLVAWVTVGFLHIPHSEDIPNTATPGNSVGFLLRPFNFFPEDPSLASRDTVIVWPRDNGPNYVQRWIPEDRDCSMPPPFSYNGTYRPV
Experimental: (§1) VAP-1 enzyme (SSAO) activity in both human and rat plasma was determined by a radiochemical-enzyme assay using ^14C-benzylamine as artificial substrate. The enzyme suspension prepared from blood plasma was pre-incubated with Compound A in 96-well microplate at room temperature for 30 min. The enzyme suspension was then incubated with ^14C-benzylamine (2×10^−5 mol/l final concentration) in a final volume of 50 μl at 37° C. for 1 hour. The enzyme reaction was terminated by adding 2 mol/l (50 μl) citric acid. The oxidized products were directly extracted into a 200 μl toluene scintillator, and its radioactivity was measured by a scintillation spectrometer. Monoamine oxidase (MAO) and diamine oxidase (DAO, histaminase) activities were also determined by similar method using ^14C-phenylethylamine and ^14C-putrescine as substrate, respectively. Cloned DAO from cDNA libraries was used in human DAO assay. Inhibition activity was expressed as IC50 (μmol/l) value.

retinal VEGF = assay: Retinal VEGF level in STZ diabetic rats (Murine VEGF ELISA kit); type: in vivo, rat; details: 0.1 mg/kg, sc, u.i.d.
Experimental: STZ diabetic rats were prepared in the same manner as in Example 2. Compound A (0.1 mg/kg, sc, u.i.d.) was administered from 3 days to 8 weeks after the STZ administration. To the normal group and STZ control group, a vehicle was treated. At 8 weeks from the STZ administration, the retina was removed from the animals and the retinal VEGF level was determined using a Murine VEGF ELISA kit.

diabetic rats = assay: Ocular permeability in STZ diabetic rats (leakage of fluorescein into the vitreous); type: in vivo, rat; details: 10 mg/kg, s.c. u.i.d., daily from 2 weeks after STZ for 2 weeks, mean ± S.E.M., 10 rats
Experimental: Diabetes in rats was induced with an intraperitoneal (i.p.) injection of 65 mg/ml/kg of streptozotocin (STZ) in 2 mmol/l citrate buffer (pH 4.5) after a 20-h fast. At the same time control rats were injected with an equal volume of 2 mmol/l citrate buffer. Plasma glucose level was checked by a calorimetric method. At day 3 of STZ treatment, the rats were diagnosed with diabetes showing a plasma glucose level of 350 mg/dl.
The treatment of Compound A was given daily from 2 weeks after STZ treatment for 2 weeks. At 24 hrs after final treatment of Compound A, the vascular permeability in oculus was investigated based on the leakage of dye into the vitreous 30 min after intravenous injection of fluorescein solution (40 mg/ml/kg). Permeability was expressed as vitreous/plasma ratio of fluorescein concentration measured by a fluorophotometer. At the same time, the plasma SSAO activity was checked by the radiochemical-enzyme assay using ^14C-benzylamine (2×10^−5 mol/l final concentration) as substrate.
In the same manner as in Example 2, the effect of various VAP-1 inhibitors on ocular permeability was determined in diabetic rats.

Human plasma SSAO = target: T2, Human plasma SSAO (Homo sapiens, UniProt Q16853); assay: Radiochemical-enzyme assay of VAP-1 enzyme (SSAO) activity with 14C-benzylamine, human plasma; type: biochemical
T2 construct: The enzyme suspension prepared from blood plasma was pre-incubated with Compound A; from tissue; host or cells: human blood plasma
T2 sequence (Q16853 27-763 limits assumed): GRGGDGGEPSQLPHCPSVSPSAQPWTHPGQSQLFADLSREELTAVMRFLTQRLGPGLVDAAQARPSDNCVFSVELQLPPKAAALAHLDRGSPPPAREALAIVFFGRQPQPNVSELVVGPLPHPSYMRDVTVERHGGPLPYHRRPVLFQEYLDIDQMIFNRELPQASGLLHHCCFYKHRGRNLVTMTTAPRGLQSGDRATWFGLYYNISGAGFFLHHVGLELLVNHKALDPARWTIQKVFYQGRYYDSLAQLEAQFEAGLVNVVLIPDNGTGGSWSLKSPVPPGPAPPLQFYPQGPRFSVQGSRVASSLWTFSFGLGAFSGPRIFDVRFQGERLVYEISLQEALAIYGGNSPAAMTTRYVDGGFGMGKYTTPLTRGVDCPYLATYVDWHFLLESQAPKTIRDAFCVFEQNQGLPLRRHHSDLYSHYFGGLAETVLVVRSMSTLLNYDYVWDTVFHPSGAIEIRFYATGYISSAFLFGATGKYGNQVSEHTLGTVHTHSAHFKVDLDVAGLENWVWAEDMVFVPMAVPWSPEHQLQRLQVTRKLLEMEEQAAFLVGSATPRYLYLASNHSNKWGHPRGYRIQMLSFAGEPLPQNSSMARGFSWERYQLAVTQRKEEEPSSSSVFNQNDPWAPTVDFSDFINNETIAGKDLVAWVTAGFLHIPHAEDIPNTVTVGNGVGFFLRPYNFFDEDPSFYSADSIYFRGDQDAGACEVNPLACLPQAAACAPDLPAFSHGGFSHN
Experimental: as §1

CC(=O)Nc1nc(CCc2ccc(NC(=N)N)cc2)cs1 [Compound A, N-{4-[2-(4-{[amino(imino)methyl]amino}phenyl)ethyl]-1,3-thiazol-2-yl}acetamide]
Inhibition of the enzyme activity of cloned DAO (in words) (Cloned human DAO): not | pIC50 (Cloned human DAO; 14C-putrescine as substrate, read-out: Inhibitory effect (IC50 values) Cloned human DAO): < 4.00 | Effect on the increased retinal VEGF level in STZ diabetic rats (in words) (retinal VEGF; 3 days to 8 weeks after STZ): completely inhibited | Retinal VEGF level (retinal VEGF; STZ diabetic rats, from 3 days to 8 weeks after STZ, mean ± S.E.M., 10 rats): 28.3 ± 2.72 pg/mg protein | Vitreous/Plasma Ratio of Fluorescein Concentration (diabetic rats): 5.39 ± 0.73 ×10^−3 | Inhibition of the enzyme activity of human plasma SSAO (in words) (Human plasma SSAO): completely inhibited | pIC50 (Human plasma SSAO; 30 min pre-incubation, 14C-benzylamine 2×10^−5 mol/l, 37° C., 1 hour, read-out: Inhibitory effect (IC50 values) Human plasma SSAO): 6.82
